Values joined by “and” are separate entries in the source; they are usually repeats but may differ in a detail not shown here. Equal entries are not always repeated. Toxic doses and inconclusive results are not listed. The calls were made as follows: active = survival T/C of 150% or more; inactive = T/C below 125% in these data.
Tested on: B6C3F1 mice, Lewis lung carcinoma iv, survival T/C
Test: NCI In Vivo Anticancer Drug Screen. Data for tumor model Lewis Lung Carcinoma (intravenous) in B6C3F1 mice
Conditions: endpoint: median survival time, schedule: Q01DX009 (ip), higher = longer survival
Procedure: The antitumor activity of compounds was measured in mice bearing transplantable tumors. Survival or tumor size were measured and the results are expressed as the measurement made in the treated group (T) divided by the measurement made in the vehicle treated control group (C). The tumor model used in this assay is Lewis Lung Carcinoma (intravenous) in B6C3F1 mice

[1] = dose: 25.0 mg/kg/injection, vehicle: saline
[2] = dose: 50.0 mg/kg/injection, vehicle: saline
[3] = dose: 6.25 mg/kg/injection, vehicle: saline
[4] = dose: 12.5 mg/kg/injection, vehicle: saline
[5] = dose: 16.0 mg/kg/injection, vehicle: saline with Tween-80
[6] = dose: 32.0 mg/kg/injection, vehicle: saline with Tween-80
[7] = dose: 64.0 mg/kg/injection, vehicle: saline with Tween-80
[8] = dose: 128.0 mg/kg/injection, vehicle: saline with Tween-80
[9] = dose: 256.0 mg/kg/injection, vehicle: saline with Tween-80
[10] = dose: 3.12 mg/kg/injection, vehicle: saline
[11] = dose: 100.0 mg/kg/injection, vehicle: saline
[12] = dose: 12.5 mg/kg/injection, vehicle: saline with Tween-80
[13] = dose: 25.0 mg/kg/injection, vehicle: saline with Tween-80
[14] = dose: 50.0 mg/kg/injection, vehicle: saline with Tween-80
[15] = dose: 100.0 mg/kg/injection, vehicle: saline with Tween-80
[16] = dose: 200.0 mg/kg/injection, vehicle: saline with Tween-80
[17] = dose: 0.5 mg/kg/injection, vehicle: saline
[18] = dose: 1.0 mg/kg/injection, vehicle: saline

Measured: T/C

COc1cccc2c1C(=O)c1c(O)c3c(c(O)c1C2=O)C[C@@](O)(C(C)=O)C[C@@H]3OC1CC(N(Cc2ccccc2)Cc2ccccc2)C(O)C(C)O1 (some centres undefined)
inactive: dose: 1.5 mg/kg/injection, vehicle: saline with Tween-80 104 % of control | dose: 1.5 mg/kg/injection, vehicle: water 96 % of control | dose: 1.56 mg/kg/injection, vehicle: saline with Tween-80 103 % of control | dose: 3.0 mg/kg/injection, vehicle: saline with Tween-80 112 % of control | dose: 3.0 mg/kg/injection, vehicle: water 99 % of control | dose: 3.12 mg/kg/injection, vehicle: saline with Tween-80 114 % of control | dose: 6.0 mg/kg/injection, vehicle: saline with Tween-80 113 % of control | dose: 6.25 mg/kg/injection, vehicle: saline with Tween-80 112 % of control and 116 % of control

CNC(=O)OCc1c(COC(=O)NC)c(-c2ccc(Cl)c(Cl)c2)n2c1Cc1ccccc1C2
inactive: dose: 12.5 mg/kg/injection, vehicle: distilled water + Tween-80 102 % of control | dose: 25.0 mg/kg/injection, vehicle: distilled water + Tween-80 114 % of control | dose: 50.0 mg/kg/injection, vehicle: distilled water + Tween-80 101 % of control and 105 % of control

COc1cc2c(ccc3c4cc(OC)c(OC)cc4c[n+](C)c23)cc1O
inactive: [1] 111 % of control | [2] 113 % of control

O=c1n(CC2CO2)c(=O)n(CC2CO2)n1CC1CO1 (centres undefined)
inactive: [3] 100 % of control | [4] 108 % of control | [1] 108 % of control

O=CCC(O)C(O)C(O)CO (centres undefined)
inactive: dose: 300.0 mg/kg/injection, vehicle: suspension in saline 102 % of control | dose: 600.0 mg/kg/injection, vehicle: suspension in saline 108 % of control | dose: 1200.0 mg/kg/injection, vehicle: suspension in saline 114 % of control | dose: 1800.0 mg/kg/injection, vehicle: suspension in saline 117 % of control | dose: 2400.0 mg/kg/injection, vehicle: suspension in saline 106 % of control

CNC(=O)Oc1ccc[nH]c1=O
inactive: [5] 101 % of control | [6] 103 % of control | [7] 104 % of control | [8] 90 % of control | [9] 94 % of control

Cc1[nH]ccc(=O)c1O
inactive: [5] 87 % of control | [6] 95 % of control | [7] 101 % of control | [8] 108 % of control | [9] 99 % of control

O=C1N[C@@H]2C(=C[C@H](O)[C@@H](O)[C@H]2O)c2cc3c(c(O)c21)OCO3
inactive: dose: 0.62 mg/kg/injection, vehicle: saline with Tween-80 93 % of control | dose: 0.63 mg/kg/injection, vehicle: saline with Tween-80 112 % of control | dose: 1.25 mg/kg/injection, vehicle: saline with Tween-80 107 % of control and 109 % of control | dose: 2.5 mg/kg/injection, vehicle: saline with Tween-80 107 % of control and 117 % of control

O=C(O)C1CSCN1 (centres undefined)
inactive: [10] 99 % of control | [3] 108 % of control | [4] 100 % of control | [1] 101 % of control | [2] 101 % of control | [11] 106 % of control

CCSC(=O)N1c2ccc(OC)cc2C=CC1C#N (centres undefined)
inactive: [12] 98 % of control | [13] 113 % of control | [14] 99 % of control | [15] 104 % of control | [16] 110 % of control | dose: 400.0 mg/kg/injection, vehicle: saline with Tween-80 108 % of control

Cc1cc(NS(=O)(=O)c2ccc(N=Nc3cc(N=Nc4ccc(S(=O)(=O)Nc5cc(C)nc(C)n5)cc4)c4c(NC(=O)C(Cl)Cl)cccc4c3OC(=O)C(Cl)Cl)cc2)nc(C)n1 (tested in a mixture with another compound)
inactive: dose: 25.0 mg/kg/injection, vehicle: suspension in saline 105 % of control | dose: 50.0 mg/kg/injection, vehicle: suspension in saline 90 % of control | dose: 100.0 mg/kg/injection, vehicle: suspension in saline 88 % of control | dose: 200.0 mg/kg/injection, vehicle: suspension in saline 88 % of control

CCN(CC)CC[n+]1ccc2c(C)c3[nH]c4ccc(O)cc4c3c(C)c2c1
inactive: dose: 1.56 mg/kg/injection, vehicle: saline 95 % of control | dose: 1.56 mg/kg/injection, vehicle: suspension in saline 106 % of control | [10] 100 % of control | dose: 3.12 mg/kg/injection, vehicle: suspension in saline 100 % of control | [3] 106 % of control | dose: 6.25 mg/kg/injection, vehicle: suspension in saline 116 % of control | [4] 98 % of control

OC(C1CO1)C(O)C1CO1 (centres undefined)
inactive: dose: 0.25 mg/kg/injection, vehicle: saline 101 % of control | [17] 100 % of control | [18] 102 % of control | dose: 2.0 mg/kg/injection, vehicle: saline 109 % of control

O=C(O)CP(=O)(O)O
inactive: [4] 94 % of control | [1] 97 % of control | [2] 97 % of control | [11] 95 % of control | dose: 200.0 mg/kg/injection, vehicle: saline 92 % of control | dose: 400.0 mg/kg/injection, vehicle: saline 94 % of control | dose: 800.0 mg/kg/injection, vehicle: saline 94 % of control

O=C1CCCCC1C(=O)C(F)(F)F (centres undefined)
inactive: dose: 12.5 mg/kg/injection, vehicle: saline + Tween-80 + alcohol 96 % of control | dose: 25.0 mg/kg/injection, vehicle: saline + Tween-80 + alcohol 111 % of control | dose: 50.0 mg/kg/injection, vehicle: saline + Tween-80 + alcohol 94 % of control

CCC(C(=O)O)C(=O)O.[NH2-].[NH2-].[Pt+2]
inactive: [10] 102 % of control | [3] 103 % of control | [4] 120 % of control | [1] 112 % of control and 120 % of control | [2] 109 % of control and 118 % of control

NC(=S)N/N=C/c1ccc(OC(=O)COc2ccc(Cl)cc2)cn1
inactive: [12] 99 % of control and 100 % of control | [13] 92 % of control and 99 % of control | [14] 95 % of control and 101 % of control | [15] 92 % of control and 107 % of control | [16] 116 % of control

NC(=O)c1ccc(N)nc1
inactive: [17] 115 % of control | [18] 115 % of control

From PubChem BioAssay AID276 (DTP/NCI, 2004)
